The target in assay [1] is T1, human PR-B (Homo sapiens, UniProt P06401).
T1 construct: expressed in transfected cells; host or cells: CV-1 cells (African green monkey kidney fibroblasts), transient transfection
T1 sequence (P06401 1-933): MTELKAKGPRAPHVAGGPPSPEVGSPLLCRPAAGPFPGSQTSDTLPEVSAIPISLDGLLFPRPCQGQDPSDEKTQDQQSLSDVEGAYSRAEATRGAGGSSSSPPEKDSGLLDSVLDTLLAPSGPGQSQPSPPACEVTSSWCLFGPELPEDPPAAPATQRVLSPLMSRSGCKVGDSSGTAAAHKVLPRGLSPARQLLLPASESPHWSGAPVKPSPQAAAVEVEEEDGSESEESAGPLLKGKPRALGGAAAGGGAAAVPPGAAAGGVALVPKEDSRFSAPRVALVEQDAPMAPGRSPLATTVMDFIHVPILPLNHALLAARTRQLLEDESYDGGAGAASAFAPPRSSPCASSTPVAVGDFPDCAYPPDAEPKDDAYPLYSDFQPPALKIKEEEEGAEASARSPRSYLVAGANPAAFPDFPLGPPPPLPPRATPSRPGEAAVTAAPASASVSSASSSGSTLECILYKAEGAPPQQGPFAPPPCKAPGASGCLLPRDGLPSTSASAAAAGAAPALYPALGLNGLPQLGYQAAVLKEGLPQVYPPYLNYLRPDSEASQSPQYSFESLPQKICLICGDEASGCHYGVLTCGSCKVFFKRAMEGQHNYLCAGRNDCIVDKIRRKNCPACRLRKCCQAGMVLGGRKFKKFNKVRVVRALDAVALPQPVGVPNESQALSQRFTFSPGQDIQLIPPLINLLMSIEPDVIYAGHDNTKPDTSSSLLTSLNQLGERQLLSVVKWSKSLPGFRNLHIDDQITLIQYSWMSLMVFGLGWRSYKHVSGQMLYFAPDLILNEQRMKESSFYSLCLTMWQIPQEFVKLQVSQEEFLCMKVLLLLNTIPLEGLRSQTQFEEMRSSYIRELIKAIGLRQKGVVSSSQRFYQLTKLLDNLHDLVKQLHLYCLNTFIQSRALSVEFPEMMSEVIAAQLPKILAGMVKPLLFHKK
Put plainly: Co-transfection assay, PR agonist activity.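 As to all read-outs here: CV-1 cells (African green monkey kidney) co-transfected with receptor plasmid and hormone-responsive firefly luciferase reporter, agonism read as compound-dependent rise in luciferase signal.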 In kind it is cell-based. The conditions noted are these: for Emax: CV-1, read-out: PR Agonist CV-1 Cells Efficacy (%).

For assay [2], the target named is T1, human PR-B. Put plainly: Co-transfection assay, PR antagonist activity.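 As to all read-outs here: monkey kidney fibroblasts co-transfected with receptor expression plasmid and hormone-responsive luciferase reporter, antagonism read as reduced luciferase signal.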 The format is cell-based. As to conditions: for Emax: CV-1, read-out: PR Antagonist CV-1 Cells Efficacy (%).

Take `CC1=CC(C)(C)Nc2c(F)cc(-c3cccc([N+](=O)[O-])c3)cc21` [Compound 291, 8-Fluoro-1,2-dihydro-2,2,4-trimethyl-6-(3-nitrophenyl)quinoline]: the Emax at human PR-B [1] was under 20%; at human PR-B [2], 79%.
In the case of `CC1=CC(C)(C)Nc2ccc3c(c21)/C(=C/c1ccccc1)Oc1ccccc1-3` [Compound 220, (Z)-5-Benzylidene-1,2-dihydro-2,2,4-trimethyl-5H-chromeno[3,4-f]quinoline], the Emax was 147% on human PR-B [1] and under 20% at human PR-B [2].
The corresponding values for `CCCCC1Oc2ccccc2-c2ccc3c(c21)C(C)C(O)(CCCC)C(C)(C)N3` (racemic) [Compound 385, (R/S)-3,5-Dibutyl-1,2,3,4-tetrahydro-3-hydroxy-2,2,4-trimethyl-5H-chromeno[3,4-f]quinoline] are 27% and 45%.
On to `CC1(C)Nc2ccc3c(c2C(=O)C1(C)C)C(c1ccc(Cl)cc1)Oc1ccccc1-3` (racemic) [Compound 379, (R/S)-5-(4-Chlorophenyl)-1,2,3,4-tetrahydro-2,2,3,3-tetramethyl-5H-chromeno[3,4-f]-4-quinolinone], for which the Emax was under 20% at human PR-B [1] and 87% on human PR-B [2].
As for `CC1(C)C=Cc2c(ccc3c2/C(=C/c2ccccc2)Oc2ccc(Cl)cc2-3)N1` [Compound 368, (Z)-5-Benzylidene-9-chloro-1,2-dihydro-2,2-dimethyl-5H-chromeno[3,4-f]quinoline], the Emax was 183% at human PR-B [1] and under 20% at human PR-B [2].
As for `CC1C(=O)C(C)(C)Nc2ccc(-c3cc(F)cc(C#N)c3)cc21` (stereo not drawn) [Compound 286, 6-(3-Cyano-5-fluorophenyl)-1,2-dihydro-2,2,4-trimethyl-3-quinolone], the Emax was under 20% at human PR-B [1] and 84% at human PR-B [2].
As for `CC1=CC(C)(C)Nc2cc(C)c3c(c21)/C(=C/c1ccccc1)Oc1ccc(F)cc1-3` [Compound 377, (Z)-5-Benzylidene-9-fluoro-1,2-dihydro-2,2,4,11-tetramethyl-5H-chromeno[3,4-f]quinoline], the Emax on human PR-B [1] was 101%; at human PR-B [2] it was under 20%.
As to `CC(=O)[C@H]1CC[C@H]2[C@@H]3CCC4=CC(=O)CC[C@]4(C)[C@H]3CC[C@]12C` [Prog, progesterone, reference compound], the Emax at human PR-B [1] is 100%; at human PR-B [2], under 20%.
Regarding `CC1CC(C)(C)Nc2ccc(-c3cc(F)cc(C#N)c3)cc21` (racemic) [Compound 455, (R/S)-6-(3-Cyano-5-fluorophenyl)-1,2,3,4-Tetrahydro-2,2,4-trimethylquinoline], the values for the Emax at human PR-B [1] and on human PR-B [2] were under 20% and 76%, respectively.
Take `CC1(C)C=Cc2c(ccc3c2c(=O)oc2ccc(Cl)cc23)N1` [Compound 313, 9-Chloro-1,2-dihydro-2,2-dimethyl-5-coumarino[3,4-f]quinoline]: the “PR Agonist CV-1 Cells Efficacy (%)” value on human PR-B [1] (CV-1 cells, percent maximal response relative to reference agonist progesterone) was 26%. The “PR Antagonist CV-1 Cells Efficacy (%)” value at human PR-B [2] (CV-1 cells, percent maximal inhibition, progesterone at its EC50) was found to be 94%.
With `CC1=CC(C)(C)Nc2ccc3c(c21)/C(=C/c1ccccc1C)Oc1ccc(F)cc1-3` [Compound 374, (Z)-9-Fluoro-1,2-dihydro-2,2,4-trimethyl-5-(2-methylbenzylidene)-5H-chromeno[3,4-f]quinoline], the Emax at human PR-B [1] is 231%; at human PR-B [2] it was under 20%.
On to `CC1=CC(C)(C)Nc2ccc3c(c21)COc1c(Cl)cccc1-3` [Compound 331, (R/S)-7-Chloro-1,2-dihydro-2,2,4-trimethyl-5H-chromeno[3,4-f]quinoline], for which the Emax at human PR-B [1] was under 20%; on human PR-B [2] it was 88%.
In the case of `CC1C(=O)C(C)(C)Nc2ccc3c(c21)/C(=C/c1cccc(F)c1)Oc1ccccc1-3` (racemic) [Compound 389, (Z)-(R/S)-5-(3-Fluorobenzylidene)-1,2,3,4-tetrahydro-2,2,4-trimethyl-5H-chromeno[3,4-f]-3-quinolinone], the results for the Emax at human PR-B [1] and at human PR-B [2] were 133% and under 20%, respectively.
Regarding `CC1=CC(C)(C)Nc2ccc3c(c21)/C(=C/c1ccccc1F)Oc1ccccc1-3` [Compound 228, (Z)-5-(2-Fluorobenzylidene)-1,2-dihydro-2,2,4-trimethyl-5H-chromeno[3,4-f]quinoline], the results for the Emax at human PR-B [1] and at human PR-B [2] were 114% and under 20%, respectively.
Turning to `CC1=CC(C)(C)Nc2ccc3c(c21)C(C)Oc1ccc(Cl)cc1-3` (racemic) [Compound 332, (R/S)-9-Chloro-1,2-dihydro-2,2,4,5-tetramethyl-5H-chromeno[3,4-f]quinoline], the figures for the Emax on human PR-B [1] and at human PR-B [2] were 138% and under 20%, respectively.
Turning to `CC1=CC(C)(C)Nc2ccc(-c3csc(C#N)c3)cc21` [Compound 452, 6-(5-Cyano-3-thienyl)-1,2-dihydro-2,2,4-trimethylquinoline], the Emax is 119% on human PR-B [1] and 70% at human PR-B [2].
Regarding `CC1=CC(C)(C)Nc2ccc(-c3cc(F)cc(C#N)c3)cc21` [Compound 271, 6-(3-Cyano-5-fluorophenyl)-1,2-dihydro-2,2,4-trimethylquinoline], the “PR Agonist CV-1 Cells Efficacy (%)” value on human PR-B [1] (cv-1 cells) was “na (key: na = not active (i.e. efficacy of <20 and potency of >10,000))”.
For `CC1=CC(C)(C)Nc2ccc(-c3cccc([N+](=O)[O-])c3)c(Cl)c21` [Compound 310, 5-Chloro-1,2-dihydro-2,2,4-trimethyl-6-(3-nitrophenyl)quinoline], the results for the Emax at human PR-B [1] and on human PR-B [2] were under 20% and 70%, respectively.
In the same order, the values of `CC1=CC(C)(C)Nc2ccc(-c3cccc(Cl)c3Cl)cc21` [Compound 109, 6-(2,3-Dichlorophenyl)-1,2-dihydro-2,2,4-trimethylquinoline] are under 20% and 87%.
The corresponding values for `CC1=CC(C)(C)Nc2ccc3c(c21)/C(=C/c1ccc(F)cc1)Oc1ccccc1-3` [Compound 221, (Z)-5-(4-Fluorobenzylidene)-1,2-dihydro-2,2,4-trimethyl-5H-chromeno[3,4-f]quinoline] are 105% and under 20%.
As for `CCCO[C@@H]1[C@@H](C)c2c(ccc3c2[C@H](c2ccc(Cl)cc2)Oc2ccccc2-3)NC1(C)C` (relative stereo) [Compound 400, (R/S-3l,4u,5u)-5-(4-Chlorophenyl)-1,2,3,4-tetrahydro-3-propyloxy-2,2,4-trimethyl-5H-chromeno[3,4-f]quinoline], the Emax at human PR-B [1] is under 20%; on human PR-B [2] it was 68%.
Regarding `CC1=CC(C)(C)Nc2ccc(-n3cnc(Cl)c3Cl)cc21` [Compound 103, 6-(4,5-Dichloroimidazol-1-yl)-1,2-dihydro-2,2,4-trimethylquinoline], the Emax at human PR-B [1] is under 20%; at human PR-B [2], 91%.
In the case of `CC1=CC(C)(C)Nc2ccc(-c3nn(C)cc3Br)cc21` [Compound 104, 6-(4-Bromo-1-methylpyrazol-3-yl)-1,2-dihydro-2,2,4-trimethylquinoline], the Emax on human PR-B [1] was 39%; on human PR-B [2] it was 71%.

Values taken from patent EP1382597A2, “Steroid receptor modulator compounds and methods” (LIGAND PHARMACEUTICALS, INC., priority 1994, dated 1996).
